# ChEMBL document CHEMBL1134204, “Carbonic anhydrase inhibitors: synthesis of sulfonamides incorporating dtpa tails and of their zinc complexes with powerful topical antiglaucoma properties” (Bioorg Med Chem Lett, 2001)
# Key:
# Oryctolagus cuniculus [1] = test: In vivo activity in normotensive rabbits (23.5+/-2.6 mmHg) for the intraocular pressure (IOP) lowering 30 min after topical administration with one drop of Carbonic anhydrase inhibitor at a pH 7.4; assay type: functional, Eye
# Carbonic anhydrase 4 = Carbonic anhydrase 4 (Homo sapiens, UniProt P22748)
# Carbonic anhydrase 4, sequence (P22748 whole entry): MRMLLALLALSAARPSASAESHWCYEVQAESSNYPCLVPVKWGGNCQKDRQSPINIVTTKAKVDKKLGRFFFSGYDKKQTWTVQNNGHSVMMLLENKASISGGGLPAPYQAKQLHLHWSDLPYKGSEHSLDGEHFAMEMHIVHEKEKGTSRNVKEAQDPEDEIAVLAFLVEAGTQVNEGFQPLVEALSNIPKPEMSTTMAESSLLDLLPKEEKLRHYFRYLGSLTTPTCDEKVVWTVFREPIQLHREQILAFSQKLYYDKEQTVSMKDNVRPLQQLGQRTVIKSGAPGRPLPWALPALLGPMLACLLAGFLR
# Oryctolagus cuniculus [2] = test: In vivo activity in normotensive rabbits (23.5+/-2.6 mmHg) for the intraocular pressure (IOP) lowering 90 min after topical administration with one drop of Carbonic anhydrase inhibitor at a pH 7.4; assay type: functional, Eye
# Carbonic anhydrase 1 = Carbonic anhydrase 1 (Homo sapiens, UniProt P00915)
# Carbonic anhydrase 1, sequence (P00915 whole entry): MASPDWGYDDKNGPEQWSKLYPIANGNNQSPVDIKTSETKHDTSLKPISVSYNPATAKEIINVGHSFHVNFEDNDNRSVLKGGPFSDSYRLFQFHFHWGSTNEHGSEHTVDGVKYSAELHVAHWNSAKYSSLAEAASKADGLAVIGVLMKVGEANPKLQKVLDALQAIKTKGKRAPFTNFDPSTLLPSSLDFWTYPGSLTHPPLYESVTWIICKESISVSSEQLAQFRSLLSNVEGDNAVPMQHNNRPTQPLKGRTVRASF
# Oryctolagus cuniculus [3] = test: In vivo activity in normotensive rabbits (23.5+/-2.6 mmHg) for the intraocular pressure (IOP) lowering 60 min after topical administration with one drop of Carbonic anhydrase inhibitor at a pH 7.4; assay type: functional, Eye
# [4] = not given; remark: listed apart in the source
# Oryctolagus cuniculus [5] = test: Compound was evaluated in vivo in normotensive rabbits (23.5+/-2.6 mmHg) for the intraocular pressure (IOP) lowering 90 min after topical administration with one drop of Carbonic hydrase inhibitor at a pH 7.5; assay type: functional, Eye
# Oryctolagus cuniculus [6] = test: Compound was evaluated in vivo in normotensive rabbits (23.5+/-2.6 mmHg) for the intraocular pressure (IOP) lowering 30 min after topical administration with one drop of Carbonic anhydrase inhibitor at a pH 7.0; assay type: functional, Eye
# Oryctolagus cuniculus [7] = test: In vivo activity in normotensive rabbits (23.5+/-2.6 mmHg) for the intraocular pressure (IOP) lowering 30 min after topical administration with one drop of Carbonic anhydrase inhibitor at a pH 7.0; assay type: functional, Eye
# Oryctolagus cuniculus [8] = test: Compound was evaluated in vivo in normotensive rabbits (23.5+/-2.6 mmHg) for the intraocular pressure (IOP) lowering 90 min after topical administration with one drop of Carbonic anhydrase inhibitor at a pH 7; assay type: functional, Eye
# Oryctolagus cuniculus [9] = test: In vivo activity in normotensive rabbits (23.5+/-2.6 mmHg) for the intraocular pressure (IOP) lowering 60 min after topical administration with one drop of Carbonic anhydrase inhibitor at a pH 7.0; assay type: functional, Eye
Compound,Change in IOP (Oryctolagus cuniculus [1]),Kin,Ki (Carbonic anhydrase 4),Change in IOP (Oryctolagus cuniculus [2]),Ki (Carbonic anhydrase 1),Change in IOP (Oryctolagus cuniculus [3]),Kin [4],Change in IOP (Oryctolagus cuniculus [5]),Change in IOP (Oryctolagus cuniculus [6]),Change in IOP (Oryctolagus cuniculus [7]),Change in IOP (Oryctolagus cuniculus [8]),Change in IOP (Oryctolagus cuniculus [9])
NS(=O)(=O)c1nnc(NC(=O)CN(CCN(CCN(CC(=O)O)CC(=O)O)CC(=O)O)CC(=O)O)s1,3.1 mmHg,8.1 h⁻¹,28 nM,4.5 mmHg,55 nM,6.8 mmHg,4.3 h⁻¹,–,–,–,–,–
NS(=O)(=O)c1nnc(NC(=O)CN(CCN(CCN(CC(=O)O)CC(=O)Nc2nnc(S(N)(=O)=O)s2)CC(=O)[O-])CC(=O)[O-])s1.[Zn+2],–,–,4 nM,–,–,–,–,9.5 mmHg,7.4 mmHg,–,–,–
NS(=O)(=O)c1ccc(NC(=O)CN(CCN(CCN(CC(=O)O)CC(=O)O)CC(=O)O)CC(=O)O)cc1,–,–,180 nM,–,4100 nM,–,–,–,–,3.1 mmHg,7.2 mmHg,4.5 mmHg
